In one experiment the target is T1, TTK (Homo sapiens, UniProt P33981).
T1 sequence (P33981 1-857): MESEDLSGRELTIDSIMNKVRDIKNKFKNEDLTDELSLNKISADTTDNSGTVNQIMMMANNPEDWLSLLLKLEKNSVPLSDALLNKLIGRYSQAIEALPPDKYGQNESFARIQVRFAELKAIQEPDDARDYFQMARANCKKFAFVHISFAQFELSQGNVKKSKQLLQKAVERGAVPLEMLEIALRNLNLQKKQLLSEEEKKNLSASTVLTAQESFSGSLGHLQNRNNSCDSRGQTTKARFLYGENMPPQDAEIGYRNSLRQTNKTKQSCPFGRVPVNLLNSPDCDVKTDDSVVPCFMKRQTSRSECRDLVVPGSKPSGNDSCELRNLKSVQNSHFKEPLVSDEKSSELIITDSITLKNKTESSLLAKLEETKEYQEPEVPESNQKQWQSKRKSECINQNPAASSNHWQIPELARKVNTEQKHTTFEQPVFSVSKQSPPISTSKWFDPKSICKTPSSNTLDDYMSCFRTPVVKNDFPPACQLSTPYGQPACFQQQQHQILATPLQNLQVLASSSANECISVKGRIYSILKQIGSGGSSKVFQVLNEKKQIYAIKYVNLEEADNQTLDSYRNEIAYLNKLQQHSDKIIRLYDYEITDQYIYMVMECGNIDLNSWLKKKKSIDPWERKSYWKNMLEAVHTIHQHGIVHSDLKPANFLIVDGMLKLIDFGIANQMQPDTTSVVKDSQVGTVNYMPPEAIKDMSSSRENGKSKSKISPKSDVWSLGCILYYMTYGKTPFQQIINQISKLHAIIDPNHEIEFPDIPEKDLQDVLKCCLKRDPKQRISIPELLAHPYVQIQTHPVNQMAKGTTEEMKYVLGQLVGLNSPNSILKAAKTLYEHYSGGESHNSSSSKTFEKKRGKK
The experiment can be described thus: TTK enzyme activity, ADP-Glo kinase assay. The class given is biochemical. Also noted: purchased SignalChem T20-10G. The conditions noted are these: purified human TTK, ATP 10 μM, 25° C., 2 hours. As to the method:
To evaluate an inhibitory activity of the compound according to the present invention against TTK (MPS1), an experiment was performed as follows.
Each of the Example compounds was reacted with a purified human TTK (SignalChem #T20-10G) enzyme to evaluate an ability to inhibit an enzyme using a method as described below. A composition of 40 mM Tris-HCl (pH 7.4), 20 mM MgCl2, 0.5 mg/mL BSA, and 50 μM DTT was used as a reaction buffer, and all reactions of test substances were performed in the reaction buffer. […] In the test, purified ATP (10 μM) and an enzyme substrate (0.2 μg) were reacted with a human TTK (25 ng) enzyme at 25° C. for 2 hours, and the enzyme activity was determined using an in vitro ADP-Glo™ kinase assay (Promega). […] The degree of inhibition of the enzyme activity according to the treatment concentration of each of the compounds was calculated based on the fluorescence of the enzyme activity of the solvent control which was not treated with the compound.

In a further experiment the test system is MDA-MB-231 cells. As to the kind of experiment: Inhibition of proliferation of triple-negative breast cancer cells, CellTiter-Glo. The class given is cell-based. To be noted: Homo sapiens, 120 h; MDA-MB-231, cultured for 5 days. As to the method: Specifically, the following test was performed in order to evaluate the inhibitory activity of the compound according to the present invention against the cell proliferation in triple-negative breast cancer cells (TNBCs).
Cells were seeded in 180 μL of a culture broth at a density of 2,000 to 3,000 cells/well in a white clear bottom 96-well plate (Corning) according to the growth ability of each cell, and then cultured for 24 hours under conditions of 5% CO2 and 37° C. Thereafter, the compound was prepared by diluting a 10 mM stock solution three-fold with 100% DMSO at a total of 12 concentrations so that a peak concentration of the compound was in a range of 10 mM to 0.05 μM, and the diluted compound was then diluted in each cell culture medium so that a final concentration of the compound was in a range of 100 μM to 0.5 nM. 20 μL of a diluted solution diluted with a medium was added to the cell solution in which cells were seeded in the 96-well plate on the previous day so that a final concentration of the diluted solution was in a range of 10 μM to 0.05 nM. Each of the cells was cultured for 5 days. To check cell viability, a mixture provided in a CellTiter-Glo® Luminescent Cell Viability Assay Kit (Promega) was added to each of the cultured cell media, and cultured for another 10 minutes under a condition of 37° C. Then, a degree of luminescence (fluorescence) was measured. A degree of inhibition of the cell growth according to the treatment concentration of each of the compounds was calculated based on the fluorescence of the solvent control cells which were not treated with the compound.
Background: ATP-based viability assays read luminescence as a measure of living cells.

19 molecules from patent publication US20230183243A1, “HETEROARYL DERIVATIVES AND PHARMACEUTICAL COMPOSITION COMPRISING SAME AS ACTIVE INGREDIENT” (VORONOI INC., priority 2019, published 2023) can be followed below.

SMILES strings stand for the structures. Where only a bound is given, the exact number is not on record here.

By IC50 is commonly meant the point on the concentration scale where inhibition reaches its midpoint. One may read the GI50 as the concentration that inhibits growth by half. A lower GI50 goes with more potent growth inhibition.

Take `COc1cc(-c2ccnn2C)c(C)cc1Nc1nc(NC2CCCC2)c2c(C#N)c[nH]c2n1` [Example 35, 4-(cyclopentylamino)-2-((2-methoxy-5-methyl-4-(1-methyl-1H-pyrazol-5-yl)phenyl)amino)-7H-pyrrolo[2,3-d] pyrimidine-5-carbonitrile]: the IC50 at TTK lay within 200 to 1000 nM. For the same molecule, the GI50 with MDA-MB-231 cells is 100 to 1000 nM.

As for `Cn1nccc1-c1ccc(Nc2nc(NC3CCCCC3)c3c(C#N)c[nH]c3n2)c2c1OCCO2` [Example 39, 4-(cyclohexylamino)-2-((8-(1-methyl-1H-pyrazol-5-yl)-2,3-dihydrobenzo[b][1,4]dioxin-5-yl)amino)-7H-pyrrolo[2,3-d] pyrimidine-5-carbonitrile], the 50% inhibitory concentration (IC50) at TTK was < 50 nM. In the experiment on MDA-MB-231 cells, the GI50 is < 100 nM.

For `COc1cc(-c2ccc(CN3CCN(C(C)=O)CC3)cc2)ccc1Nc1nc(NC2CCCC2)c2c(C#N)c[nH]c2n1` [Example 41, 2-((4′-((4-acetylpiperazin-1-yl)methyl)-3-methoxy-[1,1′-biphenyl]-4-yl)amino)-4-(cyclopentylamino)-7H-pyrrolo[2,3-d] pyrimidine-5-carbonitrile], at TTK, the IC50 lay within 50 to 200 nM. The same molecule registered a GI50 with MDA-MB-231 cells of 100 to 1000 nM.

On TTK, `COc1cc(-c2ccc(F)nc2)ccc1Nc1nc(NC2CCCC2)c2c(C#N)c[nH]c2n1` [Example 42, 4-(cyclopentylamino)-2-((4-(6-fluoropyridin-3-yl)-2-methoxyphenyl)amino)-7H-pyrrolo[2,3-d] pyrimidine-5-carbonitrile] registered an IC50 of 50 to 200 nM. In the experiment with MDA-MB-231 cells, the GI50 is < 100 nM.

As for `COc1cc(-c2cnn(C)c2)ccc1Nc1nc(NC2CCCC2)c2c(C#N)c[nH]c2n1` [Example 43, 4-(cyclopentylamino)-2-((2-methoxy-4-(1-methyl-1H-pyrazol-4-yl)phenyl)amino)-7H-pyrrolo[2,3-d] pyrimidine-5-carbonitrile], the IC50 against TTK was < 50 nM. Further, the GI50 in the experiment on MDA-MB-231 cells is < 100 nM.

For the molecule `COc1cc(-c2c(C)noc2C)ccc1Nc1nc(NC2CCCC2)c2c(C#N)c[nH]c2n1` [Example 44, 4-(cyclopentylamino)-2-((4-(3,5-dimethylisoxazol-4-yl)-2-methoxyphenyl)amino)-7H-pyrrolo[2,3-d] pyrimidine-5-carbonitrile], the IC50 on TTK fell in the range of 50 to 200 nM. Further, in the experiment with MDA-MB-231 cells, the GI50 was < 100 nM.

Turning to `CCOc1cc(-c2nncn2C)ccc1Nc1nc(C2CC2)c2c(C#N)c[nH]c2n1` [Example 46, 4-cyclopropyl-2-((2-ethoxy-4-(4-methyl-4H-1,2,4-triazol-3-yl)phenyl)amino)-7H-pyrrolo[2,3-d] pyrimidine-5-carbonitrile], the IC50 against TTK was 200 to 1000 nM. In addition, the GI50 with MDA-MB-231 cells was > 1000 nM.

Molecule `CNc1nc(Nc2ccc(N3CCCC3=O)cc2OC)nc2[nH]cc(C(F)(F)F)c12` [Example 51, l-(3-methoxy-4-((4-(methylamino)-5-(trifluoromethyl)-7H-pyrrolo[2,3-d]pyrimidin-2-yl)amino)phenyl) pyrrolidin-2-one] came in with an IC50 on TTK of 50 to 200 nM. Moreover, the GI50 with MDA-MB-231 cells is > 1000 nM.

Take `COc1cc(N2CCCC2=O)ccc1Nc1nc(NC(C)C)c2c(C#N)c[nH]c2n1` [Example 65, 4-(isopropylamino)-2-((2-methoxy-4-(2-oxopyrrolidin-1-yl)phenyl)amino)-7H-pyrrolo[2,3-d] pyrimidine-5-carbonitrile]: on TTK, the IC50 was < 50 nM. Moreover, in the experiment on MDA-MB-231 cells, the GI50 was < 100 nM.

For `COc1cc(N2CCCC2=O)ccc1Nc1nc(NCC(C)C)c2c(C#N)c[nH]c2n1` [Example 66, 4-(isobutylamino)-2-((2-methoxy-4-(2-oxopyrrolidin-1-yl)phenyl)amino)-7H-pyrrolo[2,3-d] pyrimidine-5-carbonitrile], the IC50 at TTK is < 50 nM. Moreover, the GI50 in the experiment on MDA-MB-231 cells was < 100 nM.

`CCCCNc1nc(Nc2ccc(N3CCCC3=O)cc2OC)nc2[nH]cc(C#N)c12` [Example 67, 4-(butylamino)-2-((2-methoxy-4-(2-oxopyrrolidin-1-yl)phenyl)amino)-7H-pyrrolo[2,3-d] pyrimidine-5-carbonitrile]: the IC50 against TTK was < 50 nM. The GI50 in the experiment on MDA-MB-231 cells is < 100 nM.

As to `COc1cc(N2CCCC2=O)ccc1Nc1nc(NC2CCC2)c2c(C#N)c[nH]c2n1` [Example 69, 4-(cyclobutylamino)-2-((2-methoxy-4-(2-oxopyrrolidin-1-yl)phenyl)amino)-7H-pyrrolo[2,3-d] pyrimidine-5-carbonitrile], the IC50 on TTK is < 50 nM. In addition, in the experiment with MDA-MB-231 cells, the GI50 is > 1000 nM.

Regarding `COc1cc(N2CCCC2=O)ccc1Nc1nc(NCC2CCC2)c2c(C#N)c[nH]c2n1` [Example 70, 4-((cyclobutylmethyl)amino)-2-((2-methoxy-4-(2-oxopyrrolidin-1-yl)phenyl)amino)-7H-pyrrolo[2,3-d] pyrimidine-5-carbonitrile], on TTK, the IC50 is < 50 nM. Besides, the GI50 with MDA-MB-231 cells was > 1000 nM.

Consider `COCC(C)(C)Nc1nc(Nc2ccc(N3CCCC3=O)cc2OC)nc2[nH]cc(C#N)c12` [Example 72, 4-((1-methoxy-2-methylpropan-2-yl)amino)-2-((2-methoxy-4-(2-oxopyrrolidin-1-yl)phenyl)amino)-7H-pyrrolo[2,3-d] pyrimidine-5-carbonitrile], for which the IC50 against TTK is < 50 nM. In the experiment with MDA-MB-231 cells, this molecule gave a GI50 of 100 to 1000 nM.

For `COc1cc(N2CCCC2=O)ccc1Nc1nc(NC2COC2)c2c(C#N)c[nH]c2n1` [Example 73, 2-((2-methoxy-4-(2-oxopyrrolidin-1-yl)phenyl)amino)-4-(oxetan-3-ylamino)-7H-pyrrolo[2,3-d] pyrimidine-5-carbonitrile], the IC50 against TTK is < 50 nM. Further, in the experiment with MDA-MB-231 cells, the GI50 is < 100 nM.

In the case of `CNc1nc(Nc2ccc(-c3ccnn3C)c3c2OCCO3)nc2[nH]cc(C#N)c12` [Example 75, 2-((8-(l-methyl-1H-pyrazol-5-yl)-2,3-dihydrobenzo[b][1,4]dioxin-5-yl)amino)-4-(methylamino)-1H-pyrrolo[2,3-d] pyrimidine-5-carbonitrile], the IC50 on TTK is < 50 nM. Further, the GI50 in the experiment on MDA-MB-231 cells is < 100 nM.

In the case of `CC(C)Nc1nc(Nc2ccc(-c3ccnn3C)c3c2OCCO3)nc2[nH]cc(C#N)c12` [Example 76, 4-(isopropylamino)-2-((8-(1-methyl-1H-pyrazol-5-yl)-2,3-dihydrobenzo[b][1,4]dioxin-5-yl)amino)-7H-pyrrolo[2,3-d] pyrimidine-5-carbonitrile], the IC50 at TTK is < 50 nM. The GI50 in the experiment on MDA-MB-231 cells is < 100 nM.

In the case of `N#Cc1c[nH]c2nc(Nc3ccc(N4CCCC4=O)c4c3OCCO4)nc(NC3CCCCC3)c12` [Example 79, 4-(cyclohexylamino)-2-((8-(2-oxopyrrolidin-1-yl)-2,3-dihydrobenzo[b][1,4]dioxin-5-yl)amino)-7H-pyrrolo[2,3-d] pyrimidine-5-carbonitrile], the IC50 against TTK was < 50 nM. Moreover, the GI50 with MDA-MB-231 cells was < 100 nM.

For the molecule `Cn1nccc1-c1ccc(Nc2nc(NC3CCC3)c3c(C#N)c[nH]c3n2)c2c1OCCO2` [Example 82, 4-(cyclobutylamino)-2-((8-(1-methyl-1H-pyrazol-5-yl)-2,3-dihydrobenzo[b][1,4]dioxin-5-yl)amino)-7H-pyrrolo[2,3-d] pyrimidine-5-carbonitrile], the IC50 against TTK is < 50 nM. Moreover, the GI50 in the experiment on MDA-MB-231 cells is < 100 nM.
